Measurements: the NIST ThermoML archive (doi:10.1021/je800463k)

Experiment: mn = molality of the nth substance listed, in mol/kg
Details: 101 kPa, Liquid; for electrical conductivity: Frequency=0.001 MHz, Alternating current cell with electrodes; for speed of sound: Frequency=2 MHz; for mass density: Pycnometric method

CC(=O)[O-].CC(=O)[O-].[Mg+2] [magnesium acetate] + CO
Details	electrical conductivity [S/m]	mass density [kg/m3]	speed of sound [m/s]	viscosity [mPa·s]
273.15 K, m1 = 0.0059	0.0325	–	1185.9	–
273.15 K, m1 = 0.0093	0.055	–	1186.1	–
273.15 K, m1 = 0.014	–	–	–	0.821
273.15 K, m1 = 0.018	0.0621	–	1186.2	0.8229
273.15 K, m1 = 0.0339	0.0796	–	–	0.8417
273.15 K, m1 = 0.053	0.0922	–	1190.2	–
273.15 K, m1 = 0.0646	0.0965	–	–	0.8642
273.15 K, m1 = 0.0855	0.106	–	1190.1	–
273.15 K, m1 = 0.1012	–	–	–	0.9108
273.15 K, m1 = 0.1024	0.1148	–	1194.5	–
273.15 K, m1 = 0.13	–	–	–	0.9308
273.15 K, m1 = 0.1402	0.1289	–	1194.6	0.9493
273.15 K, m1 = 0.1455	0.1307	–	1192.6	–
273.15 K, m1 = 0.17	–	–	–	0.9637
273.15 K, m1 = 0.1837	0.1414	–	1195.3	–
273.15 K, m1 = 0.2003	–	–	–	0.9889
273.15 K, m1 = 0.2192	–	–	1196.7	–
273.15 K, m1 = 0.2422	0.1507	–	1196.9	1.042
273.15 K, m1 = 0.2453	–	–	–	1.036
273.15 K, m1 = 0.2889	0.1565	–	1197.1	1.091
273.15 K, m1 = 0.3042	–	–	1199.6	–
278.15 K, m1 = 0.0059	0.0329	–	1169.1	–
278.15 K, m1 = 0.0093	0.0556	–	1169.4	–
278.15 K, m1 = 0.014	–	–	–	0.7547
278.15 K, m1 = 0.018	0.0627	–	1170	0.7565
278.15 K, m1 = 0.0339	0.0807	–	–	0.7732
278.15 K, m1 = 0.053	0.0937	–	1172.6	–
278.15 K, m1 = 0.0646	0.0989	–	–	0.7927
278.15 K, m1 = 0.0855	0.1084	–	1176.6	–
278.15 K, m1 = 0.1012	–	–	–	0.8332
278.15 K, m1 = 0.1024	0.1174	–	1176.8	–
278.15 K, m1 = 0.13	–	–	–	0.8509
278.15 K, m1 = 0.1402	0.1326	–	1177.7	0.867
278.15 K, m1 = 0.1455	0.135	–	1175	–
278.15 K, m1 = 0.17	–	–	–	0.8812
278.15 K, m1 = 0.1837	0.1448	–	1179.3	–
278.15 K, m1 = 0.2003	–	–	–	0.9025
278.15 K, m1 = 0.2192	–	–	1181	–
278.15 K, m1 = 0.2422	0.153	–	1179.9	0.9469
278.15 K, m1 = 0.2453	–	–	–	0.9437
278.15 K, m1 = 0.2889	0.1605	–	1180.9	0.9892
278.15 K, m1 = 0.3042	–	–	1181.7	–
283.15 K, m1 = 0.0059	0.0334	–	1152.8	–
283.15 K, m1 = 0.0093	0.0562	–	1153.2	–
283.15 K, m1 = 0.014	–	–	–	0.6979
283.15 K, m1 = 0.018	0.0634	–	1154.7	0.6998
283.15 K, m1 = 0.0339	0.0818	–	–	0.7143
283.15 K, m1 = 0.053	0.0954	–	1156.3	–
283.15 K, m1 = 0.0646	0.1008	–	–	0.7304
283.15 K, m1 = 0.0855	0.1089	–	1156.5	–
283.15 K, m1 = 0.1012	–	–	–	0.7669
283.15 K, m1 = 0.1024	0.1198	–	1160.3	–
283.15 K, m1 = 0.13	–	–	–	0.7824
283.15 K, m1 = 0.1402	0.1355	–	1160.4	0.7965
283.15 K, m1 = 0.1455	0.1388	–	1158.5	–
283.15 K, m1 = 0.17	–	–	–	0.8105
283.15 K, m1 = 0.1837	0.1465	–	1161.7	–
283.15 K, m1 = 0.2003	–	–	–	0.8289
283.15 K, m1 = 0.2192	–	–	1162.8	–
283.15 K, m1 = 0.2422	0.1656	–	1163.1	0.8664
283.15 K, m1 = 0.2453	–	–	–	0.8643
283.15 K, m1 = 0.2889	0.1642	–	1163.5	0.8961
283.15 K, m1 = 0.3042	–	–	1165.8	–
288.15 K, m1 = 0.0059	0.0341	–	1135.7	–
288.15 K, m1 = 0.0093	0.0566	–	1136.1	–
288.15 K, m1 = 0.014	–	–	–	0.6458
288.15 K, m1 = 0.018	0.0642	–	1137.4	0.6478
288.15 K, m1 = 0.0339	0.0831	–	–	0.6606
288.15 K, m1 = 0.053	0.0969	–	1138.1	–
288.15 K, m1 = 0.0646	0.1033	–	–	0.6743
288.15 K, m1 = 0.0855	0.1114	–	1139.7	–
288.15 K, m1 = 0.1012	–	–	–	0.7063
288.15 K, m1 = 0.1024	0.1227	–	1142.7	–
288.15 K, m1 = 0.13	–	–	–	0.7206
288.15 K, m1 = 0.1402	0.139	–	1144.3	0.7286
288.15 K, m1 = 0.1455	0.1428	–	1141.6	–
288.15 K, m1 = 0.17	–	–	–	0.7465
288.15 K, m1 = 0.1837	0.1496	–	1143.8	–
288.15 K, m1 = 0.2003	–	–	–	0.7639
288.15 K, m1 = 0.2192	–	–	1147.5	–
288.15 K, m1 = 0.2422	0.1673	–	1146.4	0.7865
288.15 K, m1 = 0.2453	–	–	–	0.7929
288.15 K, m1 = 0.2889	0.1692	–	1147	0.8205
288.15 K, m1 = 0.3042	–	–	1149.4	–
293.15 K, m1 = 0.0059	0.0349	–	1119	–
293.15 K, m1 = 0.0093	0.0575	–	1118.9	–
293.15 K, m1 = 0.014	–	–	–	0.6
293.15 K, m1 = 0.018	0.0649	–	1120.9	0.6022
293.15 K, m1 = 0.0339	0.0843	–	–	0.6132
293.15 K, m1 = 0.053	0.0985	–	1121.1	–
293.15 K, m1 = 0.0646	0.1055	–	–	0.6249
293.15 K, m1 = 0.0855	0.1149	–	1122.8	–
293.15 K, m1 = 0.1012	–	–	–	0.6535
293.15 K, m1 = 0.1024	0.1258	–	1126	–
293.15 K, m1 = 0.13	–	–	–	0.666
293.15 K, m1 = 0.1402	0.1426	–	1128.4	0.6731
293.15 K, m1 = 0.1455	0.1463	–	1124.4	–
293.15 K, m1 = 0.17	–	–	–	0.6902
293.15 K, m1 = 0.1837	0.1536	–	1127.3	–
293.15 K, m1 = 0.2003	–	–	–	0.7039
293.15 K, m1 = 0.2192	–	–	1130.4	–
293.15 K, m1 = 0.2422	0.1693	–	1129.6	0.7255
293.15 K, m1 = 0.2453	–	–	–	0.7305
293.15 K, m1 = 0.2889	0.1735	–	1131.7	0.7548
293.15 K, m1 = 0.3042	–	–	1132.6	–
296.65 K, m1 = 0.1112	–	798.51	–	–
297.55 K, m1 = 0.2192	–	803.53	–	–
298.15 K, m1 = 0.0059	0.0355	–	1102.5	–
298.15 K, m1 = 0.0093	0.058	–	1102	–
298.15 K, m1 = 0.014	–	–	–	0.5583
298.15 K, m1 = 0.018	0.0656	–	1103.5	0.5605
298.15 K, m1 = 0.0339	0.0856	–	–	0.5703
298.15 K, m1 = 0.053	0.1	–	1104.6	–
298.15 K, m1 = 0.0646	0.108	–	–	0.5802
298.15 K, m1 = 0.0855	0.1183	–	1106.7	–
298.15 K, m1 = 0.1012	–	–	–	0.6059
298.15 K, m1 = 0.1024	0.1284	–	1109.8	–
298.15 K, m1 = 0.13	–	–	–	0.617
298.15 K, m1 = 0.1402	0.1458	–	1111.6	0.6234
298.15 K, m1 = 0.1455	0.1485	–	1108.4	–
298.15 K, m1 = 0.17	–	–	–	0.6396
298.15 K, m1 = 0.1837	0.1578	–	1110.9	–
298.15 K, m1 = 0.2003	–	–	–	0.6529
298.15 K, m1 = 0.2192	–	–	1113.4	–
298.15 K, m1 = 0.2422	0.1717	–	1112.7	0.6701
298.15 K, m1 = 0.2453	–	–	–	0.6746
298.15 K, m1 = 0.2889	0.1776	–	1115.2	0.6956
298.15 K, m1 = 0.3042	–	–	1116.1	–
298.5 K, m1 = 0.0646	–	793.38	–	–
299 K, m1 = 0.0339	–	790.63	–	–
299.1 K, m1 = 0.014	–	788.94	–	–
299.25 K, m1 = 0.1798	–	800.6	–	–
299.3 K, m1 = 0.2192	–	801.81	–	–
299.35 K, m1 = 0.1112	–	795.95	–	–
